The source of these data is US7737127B2, “2-propynyl adenosine analogs having A2A agonist activity and compositions thereof” (University of Virginia Patent Foundation, priority 2001, dated 2010).

Like-named read-outs stand apart in the source and are kept apart here.

In one assay the test system is human neutrophils. The assay can be described thus: Human neutrophil oxidative activity, luminol-enhanced chemiluminescence. It is filed as cell-based. The settings on record: for EC50: Homo sapiens, Neutrophil, read-out: PMN oxid (-log EC50) (converted); for EC50 / PMN oxid (-log EC50): human neutrophil experiment w/o Rolipram; for PMN oxid + roli (-log EC50): human neutrophil experiment w/Rolipram. The method, then:
Chemiluminescence Methods: Lumninol enhanced chemiluminescence, a measure of neutrophil oxidative activity, is dependent upon both superoxide production and mobilization of the granule enzyme myeloperoxidase. The light is emitted from unstable high-energy oxygen species such as hypochlorous acid and singlet oxygen generated by activated neutrophils.
The plate was incubated 5 min (37 C) and then fMLP (50 l in HA; final concentration […]) was added to all wells.
Data are presented as peak chemiluminescence as percent of activity in the absence of an adenosine agonist. The EC50 was determined using PRISM software. All compounds were tested with PMNs from three separate donors.
Lummol-enhanced chemiluminescence, a measure of neutrophil oxidative activity, is dependent upon both superoxide production and mobilization of the lysosomal granule enzyme myeloperoxidase. The light is emitted from unstable high-energy oxygen species generated by activated neutrophils. Purified neutrophils (5-10×10^5/ml) were incubated in Hanks balanced salt solution containing 0.1% human serum albumin (1 ml) with the tested A2A agonist with or without rolipram and with or without tumor necrosis factor-alpha (1 U/ml) for 30 minutes at 37° C. in a shaking water bath. […] Chemiluminescence is reported as relative peak light emitted (=height of the curve) compared to samples with tumor necrosis factor-alpha and without agonist or rolipram.

Another assay deals with T1, A3 AR (Homo sapiens, UniProt P0DMS8).
T1 sequence (P0DMS8 1-318): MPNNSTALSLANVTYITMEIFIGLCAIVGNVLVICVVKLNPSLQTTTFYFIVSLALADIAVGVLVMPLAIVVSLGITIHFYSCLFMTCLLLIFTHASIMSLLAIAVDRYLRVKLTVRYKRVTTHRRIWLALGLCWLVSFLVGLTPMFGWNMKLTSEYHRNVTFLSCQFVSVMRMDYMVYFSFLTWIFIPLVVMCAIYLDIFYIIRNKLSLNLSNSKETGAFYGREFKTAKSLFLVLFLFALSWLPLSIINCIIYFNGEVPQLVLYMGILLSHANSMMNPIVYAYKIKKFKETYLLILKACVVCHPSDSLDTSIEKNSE
The assay can be described thus: Radioligand competition binding (125I-ABA) to human A3 AR in HEK 293 cell membranes. The conditions noted are these: for Ki: Ki from competition binding, 125I-ABA, HEK 293 cell membranes; for A3/A2A: selectivity ratio A3 over A2A.

Assay [1] deals with recombinant human A2A receptors (Homo sapiens, UniProt P29274). The assay can be described thus: Radioligand competition binding to recombinant human A2A receptors in Sf9 cell membranes. The conditions noted are these: Ki from competition binding, Sf9 cell membranes. Background: In a radioligand displacement assay an active substance lowers the binding of a labelled ligand.
recombinant human A2A receptors, sequence (P29274 whole entry): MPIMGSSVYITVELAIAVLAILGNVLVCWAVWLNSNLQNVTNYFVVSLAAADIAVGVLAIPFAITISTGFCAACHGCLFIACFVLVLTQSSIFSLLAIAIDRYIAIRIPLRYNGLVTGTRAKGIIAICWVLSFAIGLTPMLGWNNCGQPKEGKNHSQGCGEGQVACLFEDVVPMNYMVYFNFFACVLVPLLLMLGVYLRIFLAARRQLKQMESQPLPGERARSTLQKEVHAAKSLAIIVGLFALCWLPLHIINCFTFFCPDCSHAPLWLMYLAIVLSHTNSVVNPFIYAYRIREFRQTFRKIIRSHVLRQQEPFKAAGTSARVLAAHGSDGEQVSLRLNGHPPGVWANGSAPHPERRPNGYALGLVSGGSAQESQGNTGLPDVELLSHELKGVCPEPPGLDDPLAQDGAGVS
Procedure: Sf9 cells were cultured in Grace's medium supplemented with 10% fetal bovine serum, 2.5 μg/ml amphotericin B and 50 μg/ml gentamycin in an atmosphere of 50% N2/50% O2. […] Infected cells were harvested 3 days post-infection and washed twice in insect PBS (PBS pH 6.3). Cells were then resuspended in lysis buffer (20 mM HEPES pH 7.5, 150 mM NaCl, 3 mM MgCl2, 1 mM β-mercaptoethanol (BME), 5 μg/mL leupeptin, 5 μg/mL pepstatin A, 1 μg/mL aprotinin, and 0.1 mM PMSF) and snap frozen for storage at −80° C. Cells were thawed on ice, brought to 30 mL total volume in lysis buffer, and burst by N2 cavitation (600 psi for 20 minutes). A low-speed centrifugation was performed to remove any unlysed cells (1000×g for 10 minutes), followed by a high-speed centrifugation (17,000×g for 30 minutes). The pellet from the final centrifugation was homogenized in buffer containing 20 mM HEPES pH 8, 100 mM NaCl, 1% glycerol, 2 μg/mL leupeptin, 2 μg/mL pepstatin A, 2 μg/mL Aprotinin, 0.1 mM PMSF, and 10 μM GDP using a small glass homogenizer followed by passage through a 26 gauge needle. Membranes were aliquoted, snap frozen in liquid N2, and stored at −80° C.
Binding experiments were performed in triplicate with 5 μg (A2A) or 25 μg (A1 and A3) membrane protein in a total volume of 0.1 mL HE buffer (20 mM HEPES and 1 mM EDTA) with 1 U/mL adenosine deaminase and 5 mM MgCl2 with or without 50 μM GTPγS. Membranes were incubated with radioligands at room temperature for three hours (for agonists) or two hours (for antagonists) in Millipore Multiscreene® 96-well GF/C filter plates and assays were terminated by rapid filtration on a cell harvester (Brandel, Gaithersburg, Md.) followed by 4×150 μl washes over 30 seconds with ice cold 10 mM Tris-HCl, pH 7.4, 10 mM MgCl2.
A further assay concerns the target T2, human A1 AR (Homo sapiens, UniProt P30542).
T2 sequence (P30542 1-326): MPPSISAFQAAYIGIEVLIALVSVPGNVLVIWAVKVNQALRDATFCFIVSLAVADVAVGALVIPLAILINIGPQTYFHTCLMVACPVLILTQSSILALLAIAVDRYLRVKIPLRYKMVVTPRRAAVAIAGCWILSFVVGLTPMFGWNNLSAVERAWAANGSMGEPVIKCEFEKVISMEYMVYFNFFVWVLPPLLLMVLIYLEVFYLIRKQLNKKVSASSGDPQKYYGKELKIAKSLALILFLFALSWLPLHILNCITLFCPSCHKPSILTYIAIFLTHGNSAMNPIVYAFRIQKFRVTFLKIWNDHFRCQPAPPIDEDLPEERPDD
As to the kind of experiment: Radioligand competition binding (125I-ABA) to human A1 AR in CHO K1 cell membranes. The settings on record: for Ki: Ki from competition binding, 125I-ABA, CHO K1 cell membranes; for A1/A2A: selectivity ratio A1 over A2A.

A word on the EC50: it is the concentration at which the effect is half-maximal. In the case of `CCNC(=O)[C@H]1O[C@@H](n2cnc3c(N)nc(C#CCC4CCN(C(=O)OC)CC4)nc32)C(O)C1O` (stereo in doubt) [JR-4007, 4-{3-[6-Amino-9-(5-ethylcarbamoyl-3,4-dihydroxytetrahydrofuran-2-yl)-9H-purin-2-yl]-prop-2-ynyl}-piperidine-1-carboxylic acid methyl ester], in the assay with human neutrophils, the half-maximal effective concentration (EC50) was 1.7 nM. Moreover, the Ki on A3 AR (A3 ± SEM) was determined as 65.2 nM; in assay [1] (A2A ± SEM), 0.97 ± 0.33 nM; on human A1 AR (A1 ± SEM), 34.6 ± 1.4 nM. Also, the A3/A2A at A3 AR worked out at 67.2. For the same compound, the A1/A2A on human A1 AR amounted to 35.7.

`CCNC(=O)[C@H]1O[C@@H](n2cnc3c(N)nc(C#CC4(O)CCC(c5ccccc5)CC4)nc32)C(O)C1O` (stereo in doubt) [JR-3161, 5-[6-Amino-2-(1-hydroxy-4-phenyl-cyclohexylethynyl)-purin-9-yl]-3,4-dihydroxytetrahydrofuran-2-carboxylic acid ethylamide]: in the assay on human neutrophils, the EC50 was 4.47 nM. The “PMN oxid + roli (-log EC50)” value in the assay on human neutrophils is reported as 9.29. For the same compound, the Ki on A3 AR (A3 ± SEM) amounted to 113 ± 6 nM; in assay [1] (A2A ± SEM), 0.9 ± 0.04 nM; on human A1 AR (A1 ± SEM), 10.9 ± 0.5 nM. Also, the A3/A2A at A3 AR stood at 127.0. Further, on human A1 AR, the A1/A2A is recorded as 12.2.

In the case of `CCNC(=O)[C@H]1O[C@@H](n2cnc3c(N)nc(C#CCC4CCN(C(=O)OCC(C)C)CC4)nc32)C(O)C1O` (stereo in doubt) [JR-4011, 4-{3-[6-Amino-9-(5-ethylcarbamoyl-3,4-dihydroxytetrahydrofuran-2-yl)-9H-purin-2-yl]-prop-2-ynyl}-piperidine-1-carboxylic acid isobutyl ester], the concentration giving a half-maximal response (EC50) with human neutrophils was 3.47 nM. The Ki at A3 AR (A3 ± SEM) is 71.7 nM; in assay [1] (A2A ± SEM) it was 0.61 ± 0.06 nM. The A3/A2A on A3 AR was found to be 117.5. For the same compound, the A1/A2A on human A1 AR was found to be 0.0.

Turning to `CCNC(=O)[C@H]1O[C@@H](n2cnc3c(N)nc(C#CCC4CCC(CO)CC4)nc32)C(O)C1O` (stereo in doubt) [ATL-2037, 5-{6-Amino-2-[3-(4-hydroxymethyl-cyclohexyl)-prop-1-ynyl]-purin-9-yl}-3,4-dihydroxytetrahydrofuran-2-carboxylic acid ethylamide], the EC50 with human neutrophils was 32.4 nM. Moreover, the “PMN oxid + roli (-log EC50)” value with human neutrophils was 8.7. The Ki came to 76 ± 6 nM at A3 AR (A3 ± SEM), 1.5 ± 0.01 nM in assay [1] (A2A ± SEM) and 19 ± 1 nM on human A1 AR (A1 ± SEM). Further, the A3/A2A on A3 AR was 50.3. The A1/A2A on human A1 AR is given as 12.6.

As for `CCNC(=O)C1OC(n2cnc3c(N)nc(C#CC(O)C4CCCCC4)nc32)C(O)C1O` (single isomer, unassigned) [JR-3159B], the “PMN oxid + roli (-log EC50)” value in the assay on human neutrophils turned out to be 10.36. Further, the “PMN oxid (-log EC50)” value in the assay on human neutrophils amounted to 9.44. In addition, the values for the Ki (at A3 AR (read-out: A3 ± SEM); in assay [1] (read-out: A2A ± SEM); at human A1 AR (read-out: A1 ± SEM)) were 2.6 ± 0.3 nM, 0.4 ± 0.07 nM and 2 ± 0.21 nM, respectively. Moreover, the A3/A2A on A3 AR is listed as 7.4. The A1/A2A on human A1 AR was 5.7.

For the compound `CCNC(=O)[C@H]1O[C@@H](n2cnc3c(N)nc(C#CC4(O)CCCCC4C)nc32)C(O)C1O` (single isomer, unassigned) [JR-3177A, 5-[6-Amino-2-(1-hydroxy-2-methyl-cyclohexylethynyl)-purin-9-yl]-3,4-dihydroxytetrahydrofuran-2-carboxylic acid ethylamide], the “PMN oxid + roli (-log EC50)” value with human neutrophils came to 9.03. Moreover, in the assay with human neutrophils, the “PMN oxid (-log EC50)” value is 7.53. In addition, the Ki on A3 AR (A3 ± SEM) amounted to 6.7 ± 0.3 nM; in assay [1] (A2A ± SEM), 1.2 ± 0.35 nM; on human A1 AR (A1 ± SEM) it was 8.7 ± 0.07 nM. In addition, the A3/A2A at A3 AR is recorded as 5.5. In addition, the A1/A2A on human A1 AR amounted to 7.1.

With `CCNC(=O)[C@H]1O[C@@H](n2cnc3c(N)nc(C#CCC4CCN(C(=O)OC(C)C)CC4)nc32)C(O)C1O` (stereo in doubt) [JR-4009, 4-{3-[6-Amino-9-(5-ethylcarbamoyl-3,4-dihydroxytetrahydrofuran-2-yl)-9H-purin-2-yl]-prop-2-ynyl}-piperidine-1-carboxylic acid isopropyl ester], the 50% effective concentration (EC50) with human neutrophils is 3.55 nM. For the same compound, the figures for the Ki (on A3 AR (A3 ± SEM); in assay [1] (A2A ± SEM); on human A1 AR (A1 ± SEM)) were 86 nM, 1.43 ± 0.23 nM and 167 nM, respectively. In addition, the A3/A2A on A3 AR came out at 60.1. Also, the A1/A2A on human A1 AR amounted to 116.4.

As to `CCNC(=O)[C@H]1O[C@@H](n2cnc3c(N)nc(C#CCN4CCN(C(=O)OCC)CC4)nc32)C(O)C1O` (stereo in doubt) [JR-3213, 4-{3-[6-Amino-9-(5-ethylcarbamoyl-3,4-dihydroxytetrahydrofuran-2-yl)-9H-purin-2-yl]-prop-2-ynyl}-piperazine-1-carboxylic acid ethyl ester], the concentration giving a half-maximal response (EC50) with human neutrophils was 3.47 nM. For the same compound, the “PMN oxid + roli (-log EC50)” value in the assay on human neutrophils came out at 9.11. Moreover, the Ki at A3 AR (A3 ± SEM) stood at 42.3 ± 18.3 nM; in assay [1] (A2A ± SEM) it was 1.9 ± 0.4 nM; on human A1 AR (A1 ± SEM), 15.8 ± 0.48 nM. Also, the A3/A2A on A3 AR is given as 22.3. For the same compound, the A1/A2A on human A1 AR came to 8.3.

In the case of `CCNC(=O)C1OC(n2cnc3c(N)nc(C#CC4(O)CCCCC4)nc32)C(O)C1O` (centres unmarked) [JR-3089], the “PMN oxid + roli (-log EC50)” value with human neutrophils is reported as 9.9. Moreover, the “PMN oxid (-log EC50)” value in the assay with human neutrophils turned out to be 9.14. Further, the Ki is 4.4 ± 11 nM at A3 AR (read-out: A3 ± SEM), 0.7 ± 0.05 nM in assay [1] (read-out: A2A ± SEM) and 7.1 ± 1.1 nM at human A1 AR (read-out: A1 ± SEM). Besides, the A3/A2A on A3 AR was 6.7. In addition, on human A1 AR, the A1/A2A stood at 10.8.

For the compound `CCNC(=O)[C@H]1O[C@@H](n2cnc3c(N)nc(C#C[C@@]4(O)CCC[C@@H](C)C4)nc32)C(O)C1O` (some centres unmarked) [JR-3221, 5-[6-Amino-2-(1-hydroxy-3-methylcyclobexylethynyl)purin-9-yl]-3,4-dihydroxytetrahydrofuran-2-carboxylic acid ethylamide], in the assay on human neutrophils, the EC50 is 50.1 nM. For the same compound, in the assay with human neutrophils, the “PMN oxid + roli (-log EC50)” value was found to be 8.21. Also, the Ki at A3 AR (A3 ± SEM) was determined as 9 ± 5.5 nM; in assay [1] (A2A ± SEM), 5.08 ± 0.81 nM; at human A1 AR (A1 ± SEM), 19.5 ± 0.12 nM. The A3/A2A on A3 AR stood at 1.8. For the same compound, the A1/A2A on human A1 AR is 3.8.

For `CC(=O)OCC1CCC(CC#Cc2nc(N)c3ncn(C4OC(CO)C(O)C4O)c3n2)CC1` (centres unmarked) [JR-2147], in the assay with human neutrophils, the “PMN oxid + roli (-log EC50)” value is 8.57. The “PMN oxid (-log EC50)” value with human neutrophils amounted to 7.13. For the same compound, the results for the Ki (on A3 AR (read-out: A3 ± SEM); in assay [1] (read-out: A2A ± SEM); on human A1 AR (read-out: A1 ± SEM)) were 89 ± 21 nM, 0.9 ± 0.38 nM and 17.5 ± 5.2 nM, respectively. Besides, the A3/A2A at A3 AR worked out at 96.7. Besides, the A1/A2A on human A1 AR turned out to be 19.0.

Regarding `CCNC(=O)[C@H]1O[C@@H](n2cnc3c(N)nc(C#CCN4CCN(c5ncccn5)CC4)nc32)C(O)C1O` (stereo in doubt) [JR-3283, 5-{6-Amino-2-[3-(4-pyrimidin-2-yl-piperazin-1-yl)-prop-1-ynyl]-purin-9-yl}-3,4-dihydroxytetrahydrofuran-2-carboxylic acid ethylamide], the EC50 with human neutrophils was 5.75 nM. Further, the results for the Ki (at A3 AR (A3 ± SEM); in assay [1] (A2A ± SEM); on human A1 AR (A1 ± SEM)) were 66.2 nM, 2 ± 0.25 nM and 15.3 ± 0.4 nM, respectively. Further, at A3 AR, the A3/A2A is given as 19.0. Besides, the A1/A2A on human A1 AR is 4.6.

Consider `CCNC(=O)[C@H]1O[C@@H](n2cnc3c(N)nc(C#CCC4CCC(C(=O)NC)CC4)nc32)C(O)C1O` (stereo in doubt) [JR-3065, 5-{6-Amino-2-[3-(4-methylcarbamoyl-cyclohexyl)-prop-1-ynyl]-purin-9-yl}-3,4-dihydroxytetrahydrofuran-2-carboxylic acid ethylamide], for which, in the assay with human neutrophils, the concentration for a half-maximal effect (EC50) is 102 nM. In addition, the “PMN oxid + roli (-log EC50)” value with human neutrophils was found to be 8.29. Also, the Ki was 28 ± 13 nM on A3 AR (A3 ± SEM), 3.6 ± 0.5 nM in assay [1] (A2A ± SEM) and 55 ± 13 nM at human A1 AR (A1 ± SEM). Also, the A3/A2A on A3 AR stood at 7.8. Besides, the A1/A2A on human A1 AR is 15.3.
